# According to US4335249A, “Herbicidal diphenyl ethers, sulfides, sulfoxides and sulfones” (Rohm and Haas Company, priority 1976, dated 1982):
# How the values were obtained:
# Format in all cases: in vivo
# [1] = system: tomato (Lycopersicon esculentum); test: Preemergence herbicidal activity, tomato; conditions: for % control, Tomato: Preemergence
# How it was run: (§1)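 Pre: flats treated immediately post-planting. Post: treated 2 wk after germination. Spray = acetone/water solution, 50 gal/acre carrier, rate in lb/A. Read ~2 wk after treatment as average % plants killed.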
# [2] = system: velvetleaf (Abutilon theophrasti); test: Preemergence herbicidal activity, velvetleaf; conditions: for % control, Velvetleaf: Preemergence
# How it was run: as §1
# [3] = system: barnyardgrass (Echinochloa crusgalli); test: Preemergence herbicidal activity, barnyardgrass; conditions: for % control, Barnyardgrass: Preemergence
# How it was run: (§2)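 Sown flats got a foliar or soil spray of compound in water-diluted acetone (carrier equivalent to 50 gallons/acre, rate in pounds per acre), given on the day of planting or, postemergence, once seedlings were two weeks old.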
# [4] = system: downybrome (Bromus tectorum); test: Preemergence herbicidal activity, downybrome; conditions: for % control, Downybrome: Preemergence
# How it was run: as §1
# foxtail (Setaria spp.) [5] = test: Preemergence herbicidal activity, foxtail; conditions: for % control, Foxtail: Preemergence
# How it was run: as §1
# wild oats (Avena fatua) [6] = test: Preemergence herbicidal activity, wild oats; conditions: for % Control, Wild Oats: Preemergence
# How it was run: as §1
# [7] = system: tomato (Lycopersicon esculentum); test: Postemergence herbicidal activity, tomato; conditions: for % control, Tomato: Postemergence
# How it was run: as §1
# [8] = system: barnyardgrass (Echinochloa crusgalli); test: Postemergence herbicidal activity, barnyardgrass; conditions: for % control, Barnyardgrass: Postemergence
# How it was run: as §2
# [9] = system: downybrome (Bromus tectorum); test: Postemergence herbicidal activity, downybrome; conditions: for % control, Downybrome: Postemergence
# How it was run: as §1
# foxtail (Setaria spp.) [10] = test: Postemergence herbicidal activity, foxtail; conditions: for % control, Foxtail: Postemergence
# How it was run: as §1
# wild oats (Avena fatua) [11] = test: Postemergence herbicidal activity, wild oats; conditions: for % Control, Wild Oats: Postemergence
# How it was run: as §1
# [12] = system: crabgrass (Digitaria spp.); test: Preemergence herbicidal activity, crabgrass
# Procedure: (§3) Using the procedure described below, compounds of the invention are evaluated for control of several of the following plant species:
# (§4) The following est procedure is employed. Seeds of selected crops and weeds are planted in soil in flats. For preemergence tests, the flats are treated with the test compound immediately after the planting. For postemergence tests, the seeds are allowed to germinate, and after two weeks the flats are treated with the test compound. The compound to be evaluated is dissolved in acetone, diluted with water, and sprayed over the flats using a carrier volume equivalent to 50 gallons per acre at the rate of application (pounds per acre, lb/A.) specified in the tables. About two weeks after the application of the test compound, the state of growth of the plants is observed and the phytotoxic effect of the compound is evaluated. Tables III and IV give the average percent control achieved by test compounds in terms of the percent of the plants which are killed by the compounds.
# corn (Zea mays) = test: Preemergence herbicidal activity, corn
# Procedure: as §3, §4
# rice (Oryza sativa) [13] = test: Preemergence herbicidal activity, rice
# Procedure: as §3, §4
# soybean (Glycine max) [14] = test: Preemergence herbicidal activity, soybean
# Procedure: as §3, §4
# wheat (Triticum sativum) [15] = test: Preemergence herbicidal activity, wheat
# Procedure: as §3, §4
# rice (Oryza sativa) [16] = test: Postemergence herbicidal activity, rice
# Procedure: as §3, §4
# soybean (Glycine max) [17] = test: Postemergence herbicidal activity, soybean
# Procedure: as §3, §4
# wheat (Triticum sativum) [18] = test: Postemergence herbicidal activity, wheat
# Procedure: as §3, §4
# [19] = system: cocklebur (Xanthium pensylvanicum); test: Preemergence herbicidal activity, cocklebur; conditions: Xanthium strumarium, pre-emergence, 336 h, 2 lb/A
# How it was run: as §1
# marigold (Tagetes spp.) [20] = test: Preemergence herbicidal activity, marigold; conditions: pre-emergence, 336 h, 2 lb/A
# How it was run: as §1
# [21] = system: morningglory (Ipomoca spp.); test: Preemergence herbicidal activity, morningglory; conditions: Ipomoea, pre-emergence, 336 h, 2 lb/A
# How it was run: as §1
# [22] = system: yellow nutsedge (Cyperus esculentus); test: Preemergence herbicidal activity, yellow nutsedge; conditions: Cyperus, pre-emergence, 336 h, 2 lb/A
# How it was run: as §1
# [23] = system: cocklebur (Xanthium pensylvanicum); test: Postemergence herbicidal activity, cocklebur; conditions: Xanthium strumarium, post-emergence, 336 h, 2 lb/A
# How it was run: as §1
# marigold (Tagetes spp.) [24] = test: Postemergence herbicidal activity, marigold; conditions: post-emergence, 336 h, 2 lb/A
# How it was run: as §1
# [25] = system: morningglory (Ipomoca spp.); test: Postemergence herbicidal activity, morningglory; conditions: Ipomoea, post-emergence, 336 h, 2 lb/A
# How it was run: as §1
# [26] = system: velvetleaf (Abutilon theophrasti); test: Postemergence herbicidal activity, velvetleaf; conditions: Abutilon theophrasti, post-emergence, 336 h, 2 lb/A
# How it was run: as §2
# [27] = system: yellow nutsedge (Cyperus esculentus); test: Postemergence herbicidal activity, yellow nutsedge; conditions: Cyperus, post-emergence, 336 h, 2 lb/A
# How it was run: as §1
structure (smiles),measurement,setting,value
"CCOC(=O)C(C)Oc1ccc(Oc2ccc(C(F)(F)F)cc2Cl)cc1 (centres unmarked) [Example 1, Ethyl 2-[4-(2-chloro-4-trifluoromethylphenoxy)phenoxy] propionate]","% control, Tomato",[1]; 1/2 lb/A (Table III),0%
same,"% control, Tomato",[1]; 1 lb/A (Table III),0%
same,"% control, Tomato",[1]; 2 lb/A (Table III),0%
same,"% control, Velvetleaf",[2]; 1/2 lb/A (Table III),0%
same,"% control, Velvetleaf",[2]; 1 lb/A (Table III),0%
same,"% control, Velvetleaf",[2]; 2 lb/A (Table III),0%
same,"% control, Barnyardgrass",[3]; 1/2 lb/A (Table III),99%
same,"% control, Barnyardgrass",[3]; 1 lb/A (Table III),100%
same,"% control, Barnyardgrass",[3]; 2 lb/A (Table III),100%
same,"% control, Downybrome",[4]; 1/2 lb/A (Table III),0%
same,"% control, Downybrome",[4]; 1 lb/A (Table III),80%
same,"% control, Downybrome",[4]; 2 lb/A (Table III),90%
same,"% control, Foxtail",foxtail (Setaria spp.) [5]; 1/2 lb/A (Table III),100%
same,"% control, Foxtail",foxtail (Setaria spp.) [5]; 1 lb/A (Table III),100%
same,"% control, Foxtail",foxtail (Setaria spp.) [5]; 2 lb/A (Table III),100%
same,"% Control, Wild Oats",wild oats (Avena fatua) [6]; 1/2 lb/A (Table III),0%
same,"% Control, Wild Oats",wild oats (Avena fatua) [6]; 1 lb/A (Table III),60%
same,"% Control, Wild Oats",wild oats (Avena fatua) [6]; 2 lb/A (Table III),99%
same,"% control, Tomato",[7]; 1/2 lb/A (Table III),10%
same,"% control, Tomato",[7]; 1 lb/A (Table III),30%
same,"% control, Tomato",[7]; 2 lb/A (Table III),80%
same,"% control, Barnyardgrass",[8]; 1/2 lb/A (Table III),100%
same,"% control, Barnyardgrass",[8]; 1 lb/A (Table III),100%
same,"% control, Barnyardgrass",[8]; 2 lb/A (Table III),100%
same,"% control, Downybrome",[9]; 1/2 lb/A (Table III),70%
same,"% control, Downybrome",[9]; 1 lb/A (Table III),80%
same,"% control, Downybrome",[9]; 2 lb/A (Table III),90%
same,"% control, Foxtail",foxtail (Setaria spp.) [10]; 1/2 lb/A (Table III),100%
same,"% control, Foxtail",foxtail (Setaria spp.) [10]; 1 lb/A (Table III),100%
same,"% control, Foxtail",foxtail (Setaria spp.) [10]; 2 lb/A (Table III),100%
same,"% Control, Wild Oats",wild oats (Avena fatua) [11]; 1/2 lb/A (Table III),100%
same,"% Control, Wild Oats",wild oats (Avena fatua) [11]; 1 lb/A (Table III),100%
same,"% Control, Wild Oats",wild oats (Avena fatua) [11]; 2 lb/A (Table III),100%
same,"% Control, Crabgrass",[12]; 1/2 lb/A (Table III),100%
same,"% Control, Crabgrass",[12]; 1 lb/A (Table III),100%
same,"% Control, Crabgrass",[12]; 2 lb/A (Table III),100%
same,"% Control, Corn",corn (Zea mays); 1/2 lb/A (Table III),0%
same,"% Control, Corn",corn (Zea mays); 1 lb/A (Table III),60%
same,"% Control, Corn",corn (Zea mays); 2 lb/A (Table III),99%
same,"% Control, Rice",rice (Oryza sativa) [13]; 1/2 lb/A (Table III),0%
same,"% Control, Rice",rice (Oryza sativa) [13]; 1 lb/A (Table III),80%
same,"% Control, Rice",rice (Oryza sativa) [13]; 2 lb/A (Table III),100%
same,"% Control, Soybean",soybean (Glycine max) [14]; 1/2 lb/A (Table III),0%
same,"% Control, Soybean",soybean (Glycine max) [14]; 1 lb/A (Table III),0%
same,"% Control, Soybean",soybean (Glycine max) [14]; 2 lb/A (Table III),0%
same,"% Control, Wheat",wheat (Triticum sativum) [15]; 1/2 lb/A (Table III),0%
same,"% Control, Wheat",wheat (Triticum sativum) [15]; 1 lb/A (Table III),0%
same,"% Control, Wheat",wheat (Triticum sativum) [15]; 2 lb/A (Table III),0%
same,"% Control, Rice",rice (Oryza sativa) [16]; 1/2 lb/A (Table III),70%
same,"% Control, Rice",rice (Oryza sativa) [16]; 1 lb/A (Table III),99%
same,"% Control, Rice",rice (Oryza sativa) [16]; 2 lb/A (Table III),90%
same,"% Control, Soybean",soybean (Glycine max) [17]; 1/2 lb/A (Table III),20%
same,"% Control, Soybean",soybean (Glycine max) [17]; 1 lb/A (Table III),30%
same,"% Control, Soybean",soybean (Glycine max) [17]; 2 lb/A (Table III),40%
same,"% Control, Wheat",wheat (Triticum sativum) [18]; 1/2 lb/A (Table III),80%
same,"% Control, Wheat",wheat (Triticum sativum) [18]; 1 lb/A (Table III),90%
same,"% Control, Wheat",wheat (Triticum sativum) [18]; 2 lb/A (Table III),95%
"CC(C#N)Oc1ccc(Oc2ccc(C(F)(F)F)cc2Cl)cc1 (centres unmarked) [Example 19, 2-[4-(2-chloro-4-trifluoromethylphenoxy)phenoxy] propionitrile]",pest or weed control at 2241.7 g/ha,[19],0%
same,pest or weed control at 2241.7 g/ha,marigold (Tagetes spp.) [20],0%
same,pest or weed control at 2241.7 g/ha,[21],0%
same,pest or weed control at 2241.7 g/ha,"[1]; Solanum lycopersicum, pre-emergence, 336 h, Pre, 2 lb/A",0%
same,pest or weed control at 2241.7 g/ha,"[2]; Abutilon theophrasti, pre-emergence, 336 h, Pre, 2 lb/A",0%
same,pest or weed control at 2241.7 g/ha,"[3]; Echinochloa crus-galli, pre-emergence, 336 h, Pre, 2 lb/A",100%
same,pest or weed control at 2241.7 g/ha,"[4]; Bromus tectorum, pre-emergence, 336 h, Pre, 2 lb/A",20%
same,pest or weed control at 2241.7 g/ha,"foxtail (Setaria spp.) [5]; Setaria, pre-emergence, 336 h, Pre, 2 lb/A",100%
same,pest or weed control at 2241.7 g/ha,[22],0%
same,pest or weed control at 2241.7 g/ha,"wild oats (Avena fatua) [6]; Avena fatua, pre-emergence, 336 h, Pre, 2 lb/A, read-out: % control, Wild oat",30%
same,pest or weed control at 2241.7 g/ha,[23],0%
same,pest or weed control at 2241.7 g/ha,marigold (Tagetes spp.) [24],0%
same,pest or weed control at 2241.7 g/ha,[25],0%
same,pest or weed control at 2241.7 g/ha,"[7]; Solanum lycopersicum, post-emergence, 336 h, Post, 2 lb/A",0%
same,pest or weed control at 2241.7 g/ha,[26],0%
same,pest or weed control at 2241.7 g/ha,"[8]; Echinochloa crus-galli, post-emergence, 336 h, Post, 2 lb/A",99%
same,pest or weed control at 2241.7 g/ha,"[9]; Bromus tectorum, post-emergence, 336 h, Post, 2 lb/A",30%
same,pest or weed control at 2241.7 g/ha,"foxtail (Setaria spp.) [10]; Setaria, post-emergence, 336 h, Post, 2 lb/A",99%
same,pest or weed control at 2241.7 g/ha,[27],0%
same,pest or weed control at 2241.7 g/ha,"wild oats (Avena fatua) [11]; Avena fatua, post-emergence, 336 h, Post, 2 lb/A, read-out: % control, Wild oat",90%
